In BindingDB's records for doi:10.7270/Q2TX3CTT (Broad Institute, 2010):

Molecular target: Glycogen synthase kinase-3 beta (Homo sapiens, UniProt P49841)
Experiment: GSK3beta kinase inhibitor potency, dose response, biochemical, luminescence, cell-free homogeneous, retest (AID 434954)

Chain of Glycogen synthase kinase-3 beta (P49841 whole entry): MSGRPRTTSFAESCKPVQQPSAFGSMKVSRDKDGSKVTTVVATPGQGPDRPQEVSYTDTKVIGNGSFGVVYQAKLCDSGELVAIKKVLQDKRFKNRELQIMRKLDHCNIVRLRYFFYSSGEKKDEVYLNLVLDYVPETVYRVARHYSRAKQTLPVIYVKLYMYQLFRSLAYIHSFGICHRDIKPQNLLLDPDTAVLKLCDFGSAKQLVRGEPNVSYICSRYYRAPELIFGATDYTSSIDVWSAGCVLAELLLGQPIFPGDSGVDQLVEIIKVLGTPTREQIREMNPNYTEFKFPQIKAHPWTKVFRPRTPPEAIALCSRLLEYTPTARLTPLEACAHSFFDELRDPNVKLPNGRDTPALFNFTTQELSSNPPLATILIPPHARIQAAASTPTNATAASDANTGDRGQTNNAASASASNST

| Compound | EC50 |
| --- | --- |
| O=C1NCCCc2c1oc1cc(Br)c(O)c(Br)c21 [MLS000043345] | 40.7 µM |
| CCC(=O)n1nc(-c2ccc(OC)cc2)nc1N [MLS000043495] | > 300 µM |
| CCOC(=O)c1cnc2ccc(OCC)cc2c1N1CCN(C)CC1 [MLS000047802] | 49.5 µM |
| N#CCCn1cc(C(CC(=O)c2ccccc2)C(=O)O)c2ccccc21 (stereo unspecified) [MLS000049352] | > 300 µM |
| CNc1nc(N)c(C(=O)C(C)(C)C)s1 [MLS000050680] | > 300 µM |
| O=C(CSc1nnc(-c2cccnc2)n1-c1ccccc1)Nc1ccc2c(c1)OCO2 [MLS000050858] | > 300 µM |
| O=C(COc1ccc(S(=O)(=O)N2CCCC2)cc1Cl)Nc1ccc2c(c1)OCO2 [MLS000052177] | > 300 µM |
| CCOC(=O)C1C(=CN2CCSCC2)NC(=O)NC1c1cc(C)ccc1C (stereo unspecified) [MLS000052412] | > 300 µM |
| COCCn1c(SCC(=O)NC(=O)NCc2ccccc2)nc2ccccc21 [MLS000053169] | > 300 µM |
| Cc1cc(C)c(C)c(S(=O)(=O)Nc2ccccc2C(=O)NCCCn2ccnc2)c1C [MLS000055504] | > 300 µM |
| NC1=N/C(=N\c2ccccc2)c2ccccc21 [MLS000057025] | > 300 µM |
| Cc1c(NC(=O)CSc2nnc3sc4ccccc4n23)c(=O)n(-c2ccccc2)n1C [MLS000060665] | > 300 µM |
| CS(=O)(=O)c1nncn1-c1ccccc1 [MLS000062086] | > 300 µM |
| Fc1ccccc1CSc1nnc(-c2ccccc2)o1 [MLS000063511] | > 300 µM |
| O=C1CC(N2CCC(c3nc4ccccc4s3)CC2)C(=O)N1 (stereo unspecified) [MLS000063725] | > 300 µM |
| O=C1NC(=O)c2c(NC(=O)C3CCCO3)cccc21 (stereo unspecified) [MLS000064410] | > 300 µM |
| CS(=O)(=O)c1ccc2nc(NC(=O)CN3CCN(Cc4ccccc4)CC3)sc2c1 [MLS000064538] | > 300 µM |
| CCCCC(=O)Nc1ncc(Br)s1 [MLS000066333] | 4.13 µM |
| O=C(c1ccncc1)N1CCN(C(=O)c2ccco2)CC1 [MLS000066790] | > 300 µM |
| Cc1cccc(-c2nnc(SCc3ccccc3)o2)c1 [MLS000067803] | > 300 µM |
| O=C(O)CNCC1COc2ccccc2O1 (stereo unspecified) [MLS000068078] | > 300 µM |
| Cc1ccc(N2CC(C(=O)NCCCn3ccnc3)CC2=O)cc1 (stereo unspecified) [MLS000069041] | > 300 µM |
| CC1(C)CC(=O)C=C(Nc2ccc(F)cc2)C1 [MLS000070279] | > 300 µM |
| CCN1CCc2c(C#N)c(N3CCCCC3)nc(N3CCOCC3)c2C1 [MLS000071254] | 16.1 µM |

| Compound | EC50 |
| --- | --- |
| Cc1nnc2n(-c3ccccc3)c(=O)c3c4c(sc3n12)CCCC4 [MLS000071277] | > 300 µM |
| Cc1cc2c(s1)NC(=O)CN=C2c1cccs1 [MLS000072965] | 33.1 µM |
| COc1ccc2nc(NC(=O)CSc3nc4cccnc4n3C)sc2c1 [MLS000072990] | 113 µM |
| CC(OC(=O)c1nsc(Cl)c1Cl)C(=O)NCc1ccco1 (stereo unspecified) [MLS000074009] | > 100 µM |
| Cc1ccc(C)c(CSc2nnc(-c3cccnc3)o2)c1 [MLS000074430] | > 300 µM |
| O=S(=O)(Nc1cccnc1)c1ccc(C2CCCCC2)cc1 [MLS000075296] | > 300 µM |
| COc1cccc(CSc2nnc(-c3ccc(F)cc3)o2)c1 [MLS000077100] | 22.5 µM |
| C=CCN=C(NC#N)SCC(=O)NC(C)(C)C [MLS000078466] | > 300 µM |
| COCCOC(=O)C(C#N)c1nc2ccccc2nc1N1CCN(Cc2ccccc2)CC1 (stereo unspecified) [MLS000078656] | > 300 µM |
| CC(C)Cn1nc(NC(=O)C(C)(C)C)c2cc3ccccc3nc21 [MLS000081069] | 71.4 µM |
| Cn1c(=O)c2[nH]c(CN(Cc3ccccc3)Cc3ccccc3)nc2n(C)c1=O [MLS000081398] | > 300 µM |
| CCCCn1nc(NC(=O)c2cccs2)c2cc3ccccc3nc21 [MLS000081455] | > 300 µM |
| Cc1[nH]nc2c1C(c1cccc(O)c1)C1C(=O)CC(C)(C)CC1=N2 (stereo unspecified) [MLS000081979] | 0.421 µM |
| CCOC(=O)c1sc2c(c1C)C(c1cccs1)C1C(=O)CCCC1=N2 (stereo unspecified) [MLS000082170] | > 300 µM |
| CSc1nc(NCc2ccco2)c2c3c(sc2n1)CN(C)CC3 [MLS000082597] | 30.2 µM |
| CCSc1nc(N)c2c3c(sc2n1)CN(C)CC3 [MLS000082600] | > 300 µM |
| Cc1nc(NCCCn2ccnc2)c2oc3ccccc3c2n1 [MLS000082652] | > 300 µM |
| COc1ccc(N2CCN(CCNC(=O)c3nnc(Cc4c(F)cccc4Cl)o3)CC2)cc1 [MLS000083714] | > 300 µM |
| CN1CCc2c(sc3c2c(=O)n(-c2cccc(Cl)c2)c2nncn32)C1 [MLS000084041] | > 300 µM |
| Cc1nc2nc(=O)c3c(n2[nH]1)NC1=C(C(=O)CC(C)(C)C1)C3c1ccccc1 (stereo unspecified) [MLS000084334] | > 300 µM |
| Cc1nc2nc(=O)c3c(n2[nH]1)NC1=C(C(=O)CC(C)(C)C1)C3c1ccc(F)cc1 (stereo unspecified) [MLS000084336] | > 300 µM |
| CCN(CC)Cc1c(C(=O)OC)nnn1-c1nonc1N [MLS000085717] | > 300 µM |
| CC(C)CNC(=O)c1cccc(NC(=O)c2ccc(NC(=O)c3ccco3)cc2)c1 [MLS000088940] | > 300 µM |
| CCOC(=O)C1C(C)=Nc2ncnn2C1c1c[nH]c2ccccc12 (stereo unspecified) [MLS000089006] | 4.64 µM |

| Compound | EC50 |
| --- | --- |
| CCOC(=O)C1C(C)=Nc2ncnn2C1/C=C/c1ccccc1 (stereo unspecified) [MLS000089169] | > 300 µM |
| COCc1c(C(N)=O)nnn1-c1nonc1N [MLS000089737] | > 300 µM |
| CN(C)c1ccc(-c2nc3ccccc3n2C)cc1 [MLS000089904] | > 300 µM |
| Cc1c(C(=O)OCCOc2ccccc2)[nH]c2c1C(=O)CCC2 [MLS000090901] | 10.9 µM |
| CCN1CCN(C(=O)c2cc3cc4cc(OC)ccc4nc3s2)CC1 [MLS000091315] | > 300 µM |
| CCOC(=O)N1CCC(NC(=O)c2cc3sccc3n2CC)CC1 [MLS000093129] | > 300 µM |
| CCC(Sc1ccc2nnc(-c3ccc(F)cc3)n2n1)C(=O)OC (stereo unspecified) [MLS000093330] | 20.1 µM |
| COC(=O)C(C)Sc1ccc2nnc(-c3ccc(F)cc3)n2n1 (stereo unspecified) [MLS000093331] | 11.9 µM |
| O=C(Nc1ccccn1)Nc1cccs1 [MLS000093554] | > 300 µM |
| CCCn1cc(SCC(=O)NCc2ccco2)c2ccccc21 [MLS000095681] | > 300 µM |
| CN(c1ccccc1C(=O)Nc1cccc(C(F)(F)F)c1)S(C)(=O)=O [MLS000096933] | > 300 µM |
| COCCn1c(SCC(=O)Nc2ncc(Cl)c(C)c2Cl)nc2ccccc21 [MLS000097567] | > 300 µM |
| Cn1c(SCc2nnc(-c3ccc(F)cc3)o2)nnc1C1COc2ccccc2O1 (stereo unspecified) [MLS000098636] | 221 µM |
| Cc1cc(C)c(NC(=O)c2ccc(S(=O)(=O)N3CCOCC3)cc2)c(C)c1 [MLS000100511] | > 300 µM |
| O=C(Nc1ncc(Cc2ccccc2)s1)C1CCCO1 (stereo unspecified) [MLS000100685] | 17.6 µM |
| N#Cc1c2n(c3c(-c4ccccc4)ncnc13)CCC2 [MLS000104266] | 40 µM |
| CCc1nnc(NC(=O)c2cccc(OC)c2)s1 [MLS000104553] | > 300 µM |
| O=C(Nc1cccnc1)Nc1ccccn1 [MLS000104821] | > 300 µM |
| O=c1oc(-c2cccs2)nc2sc3c(c12)CCC3 [MLS000107331] | > 300 µM |
| OCCNc1nc(-c2cccnc2)nc2ccccc12 [MLS000107346] | > 300 µM |
| C=C1CSc2nc(=O)c3c4c(sc3n21)CCCC4 [MLS000108332] | > 300 µM |
| Cc1ccc(S(=O)(=O)N/C(=N/C(C)C(=O)O)c2ccccc2)cc1 (stereo unspecified) [MLS000108658] | > 300 µM |
| COc1ccc(OC)c(C(=O)c2coc3ccc(OC)cc23)c1 [MLS000108671] | > 300 µM |
